Assay results: PubChem BioAssay (NCI)
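Compound exposure: 48 hours, 5 concentrations, 96-well plates. TGI: total growth inhibition.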

Assays:
Experiment in all cases: inhibition of tumour cell growth, NCI panel, 48 h
786-0 renal = test system: 786-0 renal
A498 renal = test system: A498 renal
A549 NSCLC = test system: A549 NSCLC
ACHN renal = test system: ACHN renal
CAKI-1 renal = test system: CAKI-1 renal
CCRF-CEM leukemia = test system: CCRF-CEM leukemia
COLO 205 colon = test system: COLO 205 colon
DLD-1 colon = test system: DLD-1 colon
DMS 114 small cell lung = test system: DMS 114 small cell lung
DMS 273 small cell lung = test system: DMS 273 small cell lung
EKVX NSCLC = test system: EKVX NSCLC
HCC-2998 colon = test system: HCC-2998 colon
HCT-116 colon = test system: HCT-116 colon
HCT-15 colon = test system: HCT-15 colon
HL-60(TB) leukemia = test system: HL-60(TB) leukemia
HOP-18 NSCLC = test system: HOP-18 NSCLC
HOP-62 NSCLC = test system: HOP-62 NSCLC
HOP-92 NSCLC = test system: HOP-92 NSCLC
HT29 colon = test system: HT29 colon
IGROV1 ovarian = test system: IGROV1 ovarian
K-562 leukemia = test system: K-562 leukemia
KM12 colon = test system: KM12 colon
KM20L2 colon = test system: KM20L2 colon
LOX IMVI melanoma = test system: LOX IMVI melanoma
LXFL 529 NSCLC = test system: LXFL 529 NSCLC
M14 melanoma = test system: M14 melanoma
M19-MEL melanoma = test system: M19-MEL melanoma
MALME-3M melanoma = test system: MALME-3M melanoma
MOLT-4 leukemia = test system: MOLT-4 leukemia
NCI-H226 lung = test system: NCI-H226 lung
NCI-H23 lung = test system: NCI-H23 lung
NCI-H460 lung = test system: NCI-H460 lung
NCI-H522 lung = test system: NCI-H522 lung
OVCAR-3 ovarian = test system: OVCAR-3 ovarian
OVCAR-4 ovarian = test system: OVCAR-4 ovarian
OVCAR-5 ovarian = test system: OVCAR-5 ovarian
OVCAR-8 ovarian = test system: OVCAR-8 ovarian
RPMI-8226 leukemia = test system: RPMI-8226 leukemia
RXF 393 renal = test system: RXF 393 renal
SF-268 CNS = test system: SF-268 CNS
SF-295 CNS = test system: SF-295 CNS
SF-539 CNS = test system: SF-539 CNS
SK-MEL-2 melanoma = test system: SK-MEL-2 melanoma
SK-MEL-28 melanoma = test system: SK-MEL-28 melanoma
SK-MEL-5 melanoma = test system: SK-MEL-5 melanoma
SK-OV-3 ovarian = test system: SK-OV-3 ovarian
SN12C renal = test system: SN12C renal
SNB-19 CNS = test system: SNB-19 CNS
SNB-75 CNS = test system: SNB-75 CNS
SNB-78 CNS = test system: SNB-78 CNS
SR leukemia = test system: SR leukemia
SW-620 colon = test system: SW-620 colon
TK-10 renal = test system: TK-10 renal
U251 CNS = test system: U251 CNS
UACC-257 melanoma = test system: UACC-257 melanoma
UACC-62 melanoma = test system: UACC-62 melanoma
UO-31 renal = test system: UO-31 renal
XF 498 CNS = test system: XF 498 CNS

## O=C(/C=C(\O)C(=O)O)/C=C(\O)c1ccc(Cl)cc1
786-0 renal
  TGI: > 100 µM
A498 renal
  TGI: > 100 µM
A549 NSCLC
  TGI: > 100 µM
ACHN renal
  TGI: > 100 µM
CAKI-1 renal
  TGI: > 100 µM
CCRF-CEM leukemia
  TGI: > 100 µM
COLO 205 colon
  TGI: > 100 µM
DLD-1 colon
  TGI: > 100 µM
DMS 114 small cell lung
  TGI: > 100 µM
DMS 273 small cell lung
  TGI: > 100 µM
EKVX NSCLC
  TGI: > 100 µM
HCC-2998 colon
  TGI: > 100 µM
HCT-116 colon
  TGI: > 100 µM
HCT-15 colon
  TGI: > 100 µM
HL-60(TB) leukemia
  TGI: > 100 µM
HOP-18 NSCLC
  TGI: > 100 µM
HOP-62 NSCLC
  TGI: > 100 µM
HOP-92 NSCLC
  TGI: > 100 µM
HT29 colon
  TGI: > 100 µM
IGROV1 ovarian
  TGI: > 100 µM
K-562 leukemia
  TGI: > 100 µM
KM12 colon
  TGI: > 100 µM
KM20L2 colon
  TGI: > 100 µM
LOX IMVI melanoma
  TGI: > 100 µM
LXFL 529 NSCLC
  TGI: > 100 µM
M14 melanoma
  TGI: > 100 µM
M19-MEL melanoma
  TGI: > 100 µM
MALME-3M melanoma
  TGI: > 100 µM
MOLT-4 leukemia
  TGI: > 100 µM
NCI-H226 lung
  TGI: > 100 µM
NCI-H23 lung
  TGI: > 100 µM
NCI-H460 lung
  TGI: > 100 µM
NCI-H522 lung
  TGI: > 100 µM
OVCAR-3 ovarian
  TGI: > 100 µM
OVCAR-4 ovarian
  TGI: > 100 µM
OVCAR-5 ovarian
  TGI: > 100 µM
OVCAR-8 ovarian
  TGI: > 100 µM
RPMI-8226 leukemia
  TGI: > 100 µM
RXF 393 renal
  TGI: > 100 µM
SF-268 CNS
  TGI: > 100 µM
SF-295 CNS
  TGI: > 100 µM
SF-539 CNS
  TGI: > 100 µM
SK-MEL-2 melanoma
  TGI: > 100 µM
SK-MEL-28 melanoma
  TGI: > 100 µM
SK-MEL-5 melanoma
  TGI: > 100 µM
SK-OV-3 ovarian
  TGI: > 100 µM
SN12C renal
  TGI: > 100 µM
SNB-19 CNS
  TGI: > 100 µM
SNB-75 CNS
  TGI: > 100 µM
SNB-78 CNS
  TGI: > 100 µM
SR leukemia
  TGI: > 100 µM
SW-620 colon
  TGI: > 100 µM
TK-10 renal
  TGI: > 100 µM
U251 CNS
  TGI: > 100 µM
UACC-257 melanoma
  TGI: > 100 µM
UACC-62 melanoma
  TGI: > 100 µM
UO-31 renal
  TGI: > 100 µM
XF 498 CNS
  TGI: > 100 µM

## CCC(C)CNC1=C(NC(C)=O)C(=O)c2ccccc2C1=O (centres undefined)
786-0 renal
  TGI: > 100 µM
A549 NSCLC
  TGI: > 100 µM
ACHN renal
  TGI: > 100 µM
CCRF-CEM leukemia
  TGI: > 100 µM
COLO 205 colon
  TGI: > 100 µM
DLD-1 colon
  TGI: > 100 µM
DMS 273 small cell lung
  TGI: > 100 µM
EKVX NSCLC
  TGI: > 100 µM
HCC-2998 colon
  TGI: > 100 µM
HCT-116 colon
  TGI: > 100 µM
HCT-15 colon
  TGI: > 100 µM
HL-60(TB) leukemia
  TGI: > 100 µM
HOP-62 NSCLC
  TGI: > 100 µM
HT29 colon
  TGI: > 100 µM
IGROV1 ovarian
  TGI: > 100 µM
K-562 leukemia
  TGI: > 100 µM
KM12 colon
  TGI: > 100 µM
KM20L2 colon
  TGI: > 100 µM
LOX IMVI melanoma
  TGI: > 100 µM
LXFL 529 NSCLC
  TGI: > 100 µM
M14 melanoma
  TGI: > 100 µM
M19-MEL melanoma
  TGI: 42.6 µM
MALME-3M melanoma
  TGI: > 100 µM
MOLT-4 leukemia
  TGI: > 100 µM
NCI-H226 lung
  TGI: > 100 µM
NCI-H23 lung
  TGI: > 100 µM
NCI-H460 lung
  TGI: > 100 µM
NCI-H522 lung
  TGI: > 100 µM
OVCAR-3 ovarian
  TGI: > 100 µM
OVCAR-4 ovarian
  TGI: > 100 µM
OVCAR-8 ovarian
  TGI: > 100 µM
RXF 393 renal
  TGI: > 100 µM
SF-268 CNS
  TGI: > 100 µM
SF-295 CNS
  TGI: > 100 µM
SF-539 CNS
  TGI: > 100 µM
SK-MEL-2 melanoma
  TGI: > 100 µM
SK-MEL-28 melanoma
  TGI: > 100 µM
SK-MEL-5 melanoma
  TGI: > 100 µM
SK-OV-3 ovarian
  TGI: > 100 µM
SN12C renal
  TGI: > 100 µM
SNB-19 CNS
  TGI: > 100 µM
SNB-75 CNS
  TGI: > 100 µM
SNB-78 CNS
  TGI: > 100 µM
SR leukemia
  TGI: > 100 µM
SW-620 colon
  TGI: > 100 µM
TK-10 renal
  TGI: > 100 µM
U251 CNS
  TGI: > 100 µM
UACC-257 melanoma
  TGI: > 100 µM
UACC-62 melanoma
  TGI: > 100 µM
UO-31 renal
  TGI: > 100 µM
XF 498 CNS
  TGI: > 100 µM
